According to patent US8980586B2, “Compound and method for producing same” (The Ritsumeikan Trust, priority 2011, dated 2015):
In brackets after ≈: the same amount, converted by molar mass.

Experiments:
[1] = Solubility (physicochemical properties); conditions: for Solubility in methanol, dimethyl sulfoxide (DMSO), and chloroform: organic solvents
[2] = system: Saprolegnia parasitica; experiment: Antimicrobial activity against eukaryotic microorganisms, 96-well microplate (MIC); type: cell-based; conditions: GY medium, 18° C., 24 hours
Experimental: (§1) The activity against eukaryotic microorganisms was measured with a 96-well microplate in the following manner. Compound (I-1), (I0-B), (I0-C), (I0-D), or (I-2) was suspended in 8% methanol water to prepare a sample suspension having a concentration of 4000, 2000, 1000, 500, 250, 125, 62.5, 32, 16, 8, or 4 μg/mL. Pyceze was diluted with water to prepare Pyceze aqueous solutions having the above concentrations. 50 μl of each of the sample solutions having the above concentrations, 50 μl of sterilized 4-fold concentrated liquid medium, and 100 μl of spore suspension or bacterial suspension of the test organisms prepared beforehand were poured in each well of the 96-well microplate. The experiments were performed in duplicate. […] The test organisms and the culture conditions were as follows.
Saprolegnia parasitica: GY medium (glucose: 1%, yeast extract: 0.25%, pH: 6.5), 18° C., 24 hours;

[3] = system: Phoma sp.; experiment: as above; type: cell-based; conditions: YPD medium, 30° C., 30 hours
Experimental: as §1
Phoma sp.: YPD medium (yeast extract: 1%, peptone: 2%, glucose: 2%, pH: 6.5), 30° C., 30 hours; and […]

[4] = system: Bacillus subtilis; experiment: Activity against prokaryotic microorganisms, paper disc method on agar plate; type: cell-based; conditions: LB agar, 37° C. overnight, concentration of sample solution
Experimental: (§2) The activity against prokaryotic microorganisms was measured by the paper disc method on an agar plate medium into which test organisms were kneaded. Staphylococcus aureus, Bacillus subtilis, or Escherichia coli was inoculated in 3 mL of sterilized LB medium (glucose: 0.5%, polypeptone: 1%, yeast extract: 0.5%, NaCl: 0.5%, pH: 7.2) in a test tube, and cultured at 37° C. overnight. The pre-culture solution (1%) was inoculated in a sterilized LB agar medium (agar: 1.5%) to prepare an agar assay plate. Compound (I-1) or (I-2) was dissolved in methanol to prepare a sample solution having a concentration of 1000, 500, 250, 125, 62.5, 32, 16, 8, 4, 2, or 1 μg/mL. The sample solution was infiltrated into a paper disc (ADVANTEC, diameter: 8 mm, thick), followed by air-drying. The paper disc was placed on the agar assay plate, and cultured at 37° C. overnight.

[5] = system: Escherichia coli; experiment: as above; type: cell-based; conditions: LB agar, 37° C. overnight
Experimental: as §2

[6] = system: Staphylococcus aureus; experiment: as above; type: cell-based; conditions: LB agar, 37° C. overnight, concentration of sample solution
Experimental: as §2

[7] = system: water flea (Daphnia pulex); experiment: Water flea swimming ability inhibitory activity test; type: in vivo; conditions: 24 hours incubation, 20° C.; probit method
Experimental: The number of water fleas was adjusted so that each 10 mL of aerated water contained 5 fleas. The water fleas were all 24 hours old after birth or younger. The aerated water was prepared by aerating tap water, which had been filtered by a water cleaner, for at least 24 hours. A sample solution obtained by dissolving Compound (I-1) or (I-2) in methanol, or a Pyceze aqueous solution obtained by diluting Pyceze with water, was added to the water flea breeding water under stirring so that the final concentration of the sample or Pyceze became 100, 10, 1, 0.1, or 0.01 μg/mL. After incubation for 24 hours (20° C., 17 μmol photons/m^2/s, Light:Dark=16:8), the number of water fleas swimming in the breeding water was counted. The water fleas were divided into multiple groups, each consisting of 5 fleas. Using 2 groups each, an experiment was performed with the test liquids having the aforementioned different final concentrations. From the obtained results, IC50 values were calculated according to the probit method using SPSS statistical software.

[8] = system: edible oysters; conditions: cited from earlier work
[9] = system: water fleas; conditions: cited from earlier work
[10] = system: green algae; conditions: cited from earlier work

Row | Structure (SMILES) | Solubility in methanol, dimethyl sulfoxide (DMSO), and chloroform [1] | Solubility in water [1] | minimum inhibitory concentration (MIC) with respect to Saprolegnia parasitica [2] [µg/mL] | MIC with respect to Phoma sp. [3] [µg/mL] | minimum inhibitory concentration with respect to Bacillus subtilis [4] [µg/mL] | inhibition ring formation for Escherichia coli [5] | minimum inhibitory concentration with respect to Staphylococcus aureus [6] [µg/mL] | 50% swimming ability inhibitory concentration with respect to water flea (Daphnia pulex) [7] [µg/mL] | EC50 (toxicity) in edible oysters [8] [µg/mL] | EC50 (toxicity) in water fleas [9] [µg/mL] | EC50 (toxicity) in green algae [10] [µg/mL]
1 | CC1OC(OC2C(O)CC(c3ccc4c(c3O)C(=O)C3=C(C4=O)C4(O)C(=O)CC(C)(OC5C=CC(=O)C(C)O5)CC4(O)C=C3)OC2C)C=CC1=O (centres unmarked) [Compound I0-A] | Soluble | Slightly soluble | – | – | – | – | – | – | – | – | –
2 | CC1OC(OC2CCC(OC3C(O)CC(c4ccc5c(c4O)C(=O)C4=C(C5=O)C5(O)C(=O)CC(C)(OC6CCC(=O)C(C)O6)CC5(O)C=C4)OC3C)OC2C)C=CC1=O (centres unmarked) [Compound I0-D] | Soluble | Slightly soluble | 1 | 500 | 62.5 | an inhibition ring was not observed | 62.5 | – | – | – | –
3 | CC1OC(OC2CCC(OC3C(O)CC(c4ccc5c(c4O)C(=O)C4=C(C5=O)C5(O)C(=O)CC(C)(OC6C=CC(=O)C(C)O6)CC5(O)C=C4)OC3C)OC2C)C=CC1=O (centres unmarked) [Compound I0-E] | Soluble | Slightly soluble | – | – | – | – | – | – | – | – | –
4 | CC1OC(OC2C(O)CC(c3ccc4c(c3O)C(=O)C3=C(C4=O)C4(O)C(=O)CC(C)(OC5C=CC(=O)C(C)O5)CC4(O)C=C3)OC2C)C=CC1=O (centres unmarked) [Compound I-1] | – | – | 0.0039 | 500 | 62.5 | an inhibition ring was not observed | 31.2 | 2.58 | – | – | –
5 | CC1OC(OC2CCC(OC3C(O)CC(c4ccc5c(c4O)C(=O)C4=C(C5=O)C5(O)C(=O)CC(C)(OC6C=CC(=O)C(C)O6)CC5(O)C=C4)OC3C)OC2C)C=CC1=O (centres unmarked) [Compound I-2] | – | – | 0.0078 | 500 | 8.0 | an inhibition ring was not observed | 16.0 | 4.48 | – | – | –
6 | O=[N+]([O-])C(Br)(CO)CO [bronopol] | – | – | – | – | – | – | – | – | 0.77 (≈ 3.85 µM) | 1.4 (≈ 7 µM) | 0.0537 (≈ 0.269 µM)
